# Reference: patent publication US9283242B2, “Uses of dihydro bases” (priority 2013, dated 2016)
# “Also recorded” adds a separate entry of the source.
# Legend:
# [1] = Variable temperature 1H NMR, tautomerism in DMF-d7; format: physicochemical; details: DMF-d7, 20 to −60° C.
# Description: At 20° C., exchangeable protons on the base moiety are observed at 7.58 ppm and 4.14 ppm (FIG. 10). At −60° C., exchangeable protons on the base moiety are observed at 8.70 ppm, 8.08 ppm, and 4.68 ppm (FIG. 11). Protons with a chemical shift of 8.70, 8.08, and 7.58 ppm likely correspond to enolic, amido, or imino protons, while protons with a chemical shift of 4.68 and 4.14 ppm likely correspond to amino protons. The expected chemical shifts for enolic, amido, and imino protons are relatively close, and thus these species cannot be assigned at this stage. […] Only the existence of multiple tautomeric species would explain the presence of three exchangeable protons resonances. […] Based on their chemical structures, the keto-amino tautomer will pair with guanine and the keto-imino/enol-imino tautomers can pair with adenine.
# All NMR experiments were performed on Varian 500 MHz NMR spectrometers. The deuterated solvent DMF-d7 was from Cambridge Isotope Laboratories, Andover, Mass., USA. 5-Aza-5,6-dihydro-2′-deoxycytidine (KP1212) nucleoside was from Berry & Associates Inc., Dexter, Mich., USA. The NMR sample was prepared by dissolving 10 mg of KP1212 nucleoside in 1.0 ml DMF-d7 (final concentration ˜44 mM). ^1H NMR spectra were reported in parts per million (ppm) and were referenced to the signals for DMF-d7 (8.03 ppm). ^13C NMR spectra were referenced to the signals for DMF-d7 (163.15 ppm).
# FIG. 14A depicts the structures of all five possible tautomers (1 to 5) of KP1212, among which the three active protons on the nucleobase shift among the 02, N3, N4 and N5 positions. […] Before assigning the three active protons on the nucleobase moiety, all non-exchangeable protons in KP1212 and the two hydroxyl protons on the 3′ and 5′ positions were identified by carrying out 1D (^1H and ^13C) and 2D (COSY, HSQC, and HMBC) NMR experiments. The NMR signals of the three active protons in the base portion of KP1212 were studied at different temperatures. […] When the temperature was decreased to −50° C., the three broad peaks resolved into six distinct proton resonances (FIG. 14B, denoted as peaks i-vi), which could be assigned to imino (designated as e and n in FIGS. 14A to 14C), amido (designated as g and m), enolic (designated as c and d) or amino (designated as a, b, f, h, i, j, k, l, and o) protons.
# At −50° C. six distinct proton resonances (FIG. 14B, i to vi) were observed, attributable to protons bound either to nitrogen or to oxygen atom (for only the base portion of the KP1212 molecule). Integration of the six broad peaks permitted estimation of the relative ratios of the five tautomeric species that exist in solution (FIG. 14A).
# The NMR data also allowed the determination of the relative ratios of the tautomeric species present in the DMF solution at −50° C. (FIGS. 14B and 14C). Several peaks in the NMR spectrum partially overlapped (e.g., iv and v), so the raw data were reconstructed using a least squares fit algorithm (FIG. 16). The reconstructed peaks from the simulation were integrated, yielding an estimate of the relative amounts of each of the proton resonances in the spectrum. […] 2) Based on the peak assignments from part 1), a system of linear equations was set up using the relative amounts of tautomers as unknown variables (FIG. 14D). Each NMR peak provided a linear equation whereby the peak area should be equal to the sum of all tautomers (as relative amounts) containing protons that contribute to that peak. The solutions of these equations yielded the relative ratios of the tautomeric species present in DMF at −50° C. (FIG. 14D).
# HK82SOS = assay: CRAB lesion bypass assay, HK82SOS cells; format: cell-based, E. coli; details: percentage relative to unmodified control genome
# Text: (§1) All E. coli strains used in this work contain the F′ episome, which enables infection by M13 phage. GW5100 strain was used for large scale preparation of M13 phage DNA, SCS 110 (JM110, end Al) was used for amplification of progeny phage post-electroporation, and NR9050 was the strain of choice for double agar plating with X-GAL for blue-clear detection of plaques. The E. coli strains used to replicate lesion-containing phage were HK81 (as AB1157, but nalA) and HK82 (as AB1157, but nalA alkB22; AlkB-deficient).
# Lesion-containing genomes were mixed with the competitor genome (80:20 molar ratio) and electroporated in triplicate into 100 μl competent cells using a 2 mm-gap cuvette and a BTX electroporator set to 2.5 kV and 125 a Typical pulse lengths were 4.9 msec. The cells were immediately transferred to 10 ml LB and an aliquot was immediately plated using the agar overlay method to verify that a minimum of 10^5 independent initial electroporation events occurred in 10 ml of culture. Incubation for 6 h at 37° C. with aeration generated the progeny phage, which were then reamplified in SCS 110 cells (10 μl overnight culture and 100 μl of the 6 h supernatant in 10 ml LB) to dilute out the residual genomic DNA used for electroporation. Single-stranded M13 progeny phage DNA was isolated from 1.4 ml of supernatant using a Q1Aprep Spin M13 Kit with final DNA suspension in 100 μl elution buffer. CRAB forward and reverse primers were used to amplify the region of interest from 15 μl per Q1Aprep elution sample in a total volume of 25 μl containing 50 pmol of each primer, 1×Pfu Turbo buffer, 1.25 U Pfu Turbo DNA polymerase and […] of each dNTP. The PCR program used 30 cycles of 67° C. (1 min) annealing and 72° C. (1 min) extensions. […] The gels were visualized on a phosphorimager (Typhoon 7000, GE Healthcare Life Sciences); the band intensities were quantified using IMAGEJ software (National Institutes of Health). Lesion bypass was calculated as the percentage ratio of the intensity of the 18-mer band (lesion signal) to the intensity of the 21-mer band (competitor signal). […]
# HK82-SOS = assay: REAP mutagenesis assay, HK82-SOS cells; format: cell-based, E. coli; details: (b) HK82-SOS
# Text: as §1
# (§2) Lesion-containing genomes were mixed with the competitor genome (80:20 molar ratio) and electroporated in triplicate into 100 μl competent cells using a 2 mm-gap cuvette and a BTX electroporator set to 2.5 kV and 125 a Typical pulse lengths were 4.9 msec. The cells were immediately transferred to 10 ml LB and an aliquot was immediately plated using the agar overlay method to verify that a minimum of 10^5 independent initial electroporation events occurred in 10 ml of culture. Incubation for 6 h at 37° C. with aeration generated the progeny phage, which were then reamplified in SCS 110 cells (10 μl overnight culture and 100 μl of the 6 h supernatant in 10 ml LB) to dilute out the residual genomic DNA used for electroporation. Single-stranded M13 progeny phage DNA was isolated from 1.4 ml of supernatant using a Q1Aprep Spin M13 Kit with final DNA suspension in 100 μl elution buffer. CRAB forward and reverse primers were used to amplify the region of interest from 15 μl per Q1Aprep elution sample in a total volume of 25 μl containing 50 pmol of each primer, 1×Pfu Turbo buffer, 1.25 U Pfu Turbo DNA polymerase and […] of each dNTP. The PCR program used 30 cycles of 67° C. (1 min) annealing and 72° C. (1 min) extensions. After purification using QIAQUICK PCR purification columns, 4 μl of the PCR product were treated with BbsI (1.5 U) and SAP (0.3 U) in a total volume of 6 μl by incubating at 37° C. for 4 h. After phosphatase inactivation, (80° C. for 5 min), the 5′ ends were then radiolabeled using [γ-^32P]-ATP (1.66 pmol, 10 μCi/μl, 6000 Ci/mmol), cold ATP (16 pmol) and 5 U of OPTIKINASE at 37° C. for 30 min. Following the kinase inactivation at 65° C. for 20 min, the labeled product was then trimmed by HaeIII (10 U in a final volume of 10 μl) at 37° C. for 2 h, and diluted 1:1 in formamide loading dye. PAGE separation on a 20% denaturing gel, run for about 3.5 h at 550 V, until the xylene cyanol dye migrated 10.5 cm, yielded two bands for each sample: an 18-mer originating from the lesion-containing genome and a 21-mer originating from the competitor genome. The gels were visualized on a phosphorimager (Typhoon 7000, GE Healthcare Life Sciences); the band intensities were quantified using IMAGEJ software (National Institutes of Health). Lesion bypass was calculated as the percentage ratio of the intensity of the 18-mer band (lesion signal) to the intensity of the 21-mer band (competitor signal).
# (§3) The REAP assay methodology is identical to the CRAB assay except for the PCR primers, which amplified only the progeny DNA originating from the lesion-carrying genomes. Following electrophoresis, the 18-mer bands were excised from the gel, crushed and extracted with 200 μl water. After desalting with SEPHADEX G-50 Fine resin spin columns, the samples were lyophilized to dryness, resuspended in 5 μl containing 1 μg P1 Nuclease in 30 mM sodium acetate (pH 5.3) and 10 mM zinc chloride, and incubated at 50° C. for 1 h. One μl of each sample was then spotted onto PEI-TLC plates and separated using 200 ml of a saturated solution of (NH4)2HPO4 adjusted to pH 5.8. After 24 h of development, the TLC plates were air-dried and quantified using phosphorimagery. […]
# [2] = tested on: HK82 (AlkB−) E. coli cells; format: cell-based
# [3] = tested on: HK81 (AlkB+) E. coli cells; format: cell-based
# Description: (A) A 16mer oligonucleotide containing KP1212 (SEQ ID NO: 1) (or controls) at a specific site was chemically synthesized and ligated into the genome of an M13 bacteriophage. (B) The KP1212-containing M13 genomes were replicated within E. coli cells. Progeny were analyzed to characterize the amount and the type of nucleic acid base placed opposite the lesion during replication. The relative reduction in lesion vs. non-lesion competitor progeny formation was used as an estimate of the extent to which KP1212 and m3C inhibited DNA replication. (C) The KP1212-containing M13 genomes were used as templates for in vitro polymerase extension assays, carried out at 72° C., using the high-fidelity DNA polymerase PfuTurbo. (D) Bypass efficiency (CRAB assay) of KP1212, m3C, C in HK81 (AlkB^+) and HK82 (AlkB^−) E. coli cells. m3C and undamaged C were used as controls. Genomes were made and normalized to one another before being combined with a competitor genome. Each mixture was transformed into the corresponding cell strain in triplicate, and bypass efficiency was calculated by using the undamaged C genome as 100% bypass, with error bars representing one standard deviation. (E) Mutagenesis (REAP assay) of KP1212, m3C, and C in HK82 (AlkB^−) E. coli cells. m3C, undamaged C, and an approximately equimolar mixture of genomes carrying unmodified G/A/T/C bases at the site of inquiry (denoted as GATC) were used as controls. Genomes containing the lesions of interest were transfected into E. coli in triplicate.
# as §1
# [4] = tested on: HK81 (AlkB+) E. coli cells; assay: REAP mutagenesis assay, HK81 cells; format: cell-based
# Text: as §1, §2, §3
# [5] = tested on: HK82 (AlkB−) E. coli cells; format: cell-based; remark: listed apart in the source
SMILES,tautomerism by Variable Temperature NMR [1],"Polymerase bypass efficiency, Avg. (HK82SOS) [%]","Mutagenicity, Average % A (HK82-SOS) [%]","Mutagenicity, Average % C (HK82-SOS) [%]","Mutagenicity, Average % G (HK82-SOS) [%]","Mutagenicity, Average % T (HK82-SOS) [%]","replication block / toxicity to replication ([2]; E. coli (FIG. 18D), for m3C cells that lack AlkB)","Polymerase bypass efficiency, Avg. ([2]; HK82, percentage relative to unmodified control genome, triplicate) [%]","Polymerase bypass efficiency, Avg. ([3]; HK81, percentage relative to unmodified control genome) [%]",toxicity to replication ([3]; cells that expressed the repair enzyme AlkB),"Mutagenicity, Average % C [4] [%]","Mutagenicity, Average % A ([4]; (c) HK81) [%]","Mutagenicity, Average % G ([4]; (c) HK81) [%]","Mutagenicity, Average % T ([4]; (c) HK81) [%]","Mutagenicity, Average % A ([5]; (a) HK82) [%]","Mutagenicity, Average % C ([5]; (a) HK82) [%]","Mutagenicity, Average % G ([5]; (a) HK82) [%]","Mutagenicity, Average % T ([5]; (a) HK82) [%]","base pairing / mutagenicity (in words) ([5]; FIGS. 18C, 18E, m3C in repair deficient cells)"
"Nc1ncn([C@H]2C[C@H](O)[C@@H](CO)O2)c(=O)n1 [5-Aza-dC, 5-aza-2′-deoxycytidine]",does not show multiple tautomerism; also recorded: single tautomerism,,,,,,,,,,,,,,,,,,
NC1=NC(=O)N(C2CC(O)C(CO)O2)CC1 (centres unmarked) [DHdC],shows multiple tautomerism; also recorded: multiple tautomers,,,,,,,,,,,,,,,,,,
"Cn1c(N)ccnc1=O [m3C, 3-methylcytosine]",,45,33.6,5.7,3.2,57.5,very toxic to replication,14,113,toxicity was abolished,100.0,0.0,0.0,0.0,30.6,13.2,1.3,54.9,mispair with both A and T
